From patent publication US7473669B2, “Substituted 4,5-dihydro-1,2,4-triazin-6-ones, 1,2,4-triazin-6-ones, and their use as fungicides” (priority 2005, dated 2009)
Read-outs that look alike come from different tables or passages of the source.

Columns and labels:
Format in all cases: in vivo
Colletotricum lagenarium = assay: Cucumber Anthracnose greenhouse one-day protectant test; conditions: Cucumis sativus, 24 h, read-out: COLLLA percent control rating
Erysiphe cichoracaerum = assay: Cucumber Powdery Mildew greenhouse one-day protectant test; conditions: 24 h, read-out: ERYSCI percent control rating
Leptosphaeria nodorum = assay: Glume Blotch of Wheat greenhouse one-day protectant test; conditions: Parastagonospora nodorum, 24 h, read-out: LEPTNO percent control rating
Phytophthora infestans = assay: whole plant or invertebrate; conditions: in Solanum lycopersicum, 24 h
[1] = test system: Puccinia recondita tritici; assay: Leaf Rust of Wheat greenhouse one-day protectant test; conditions: 24 h, read-out: PUCCRT percent control rating
Pyricularia oryzae = assay: whole plant or invertebrate; conditions: 24 h, read-out: PYRIOR percent control rating
[2] = cucumber plants, one-day protectant test, 200 ppm application rate
[3] = wheat plants, one-day protectant test, 200 ppm application rate
[4] = read-out: PHYTIN percent control rating, tomato plants, one-day protectant test, 200 ppm application rate

SMILES | pest or weed control at 200 ppm (Colletotricum lagenarium; [2]) [%] | pest or weed control at 200 ppm (Erysiphe cichoracaerum; [2]) [%] | pest or weed control at 200 ppm (Leptosphaeria nodorum; [3]) [%] | pest or weed control at 200 ppm (Phytophthora infestans; [4]) [%] | pest or weed control at 200 ppm [1, 3] [%] | pest or weed control at 200 ppm (Pyricularia oryzae) [%] | pest or weed control at 200 ppm (Colletotricum lagenarium) [%] | pest or weed control at 200 ppm (Erysiphe cichoracaerum) [%] | pest or weed control at 200 ppm (Leptosphaeria nodorum) [%] | pest or weed control at 200 ppm (Phytophthora infestans; read-out: PHYTIN percent control rating) [%] | pest or weed control at 200 ppm [1] [%]
O=c1cnc(-c2ccc(N3CCOCC3)cc2)nn1CC(F)(F)F [Compound 77] | 80 to 100 | 50 to 79 | 50 to 79 | 50 to 79 | 0 to 49 | 80 to 100 |  |  |  |  | 
O=C1CNC(c2cccc(Oc3cc(C(F)(F)F)cc(C(F)(F)F)n3)c2)=NN1CC(F)(F)F [Compound 24] | 0 to 49 | 0 to 49 | 80 to 100 | 0 to 49 | 80 to 100 | 0 to 49 |  |  |  |  | 
O=C1C(SC2CCCCC2)NC(c2ccc(Br)s2)=NN1CC(F)(F)F (stereo not drawn) [Compound 50] | 50 to 79 | 0 to 49 | 80 to 100 | 0 to 49 | 80 to 100 | 80 to 100 |  |  |  |  | 
O=C1CNC(c2ccc(Cl)c(Cl)c2)=NN1C(=O)C(F)(F)F [Compound 10] | 50 to 79 | 0 to 49 | 50 to 79 | 0 to 49 | 0 to 49 | 80 to 100 |  |  |  |  | 
O=C1CNC(c2cc(Cl)cc(Cl)c2)=NN1CCOc1ccccc1 [Compound 66] | 80 to 100 | 0 to 49 | 80 to 100 | 0 to 49 | 80 to 100 | 80 to 100 |  |  |  |  | 
Cc1cc(C)cc(C2=NN(CCOC(=O)Nc3ccc4c(c3)OCO4)C(=O)CN2)c1 [Compound 3] | 50 to 79 | 0 to 49 | 50 to 79 | 0 to 49 | 80 to 100 | 80 to 100 |  |  |  |  | 
Cc1cc(C)cc(C2=NN(CC(F)(F)F)C(=O)C(SCCCCl)N2)c1 (stereo not drawn) [Compound 39] | 80 to 100 | 0 to 49 | 80 to 100 | 0 to 49 | 80 to 100 | 80 to 100 |  |  |  |  | 
O=c1cnc(-c2csc(-c3ccccc3)c2)nn1CC(F)(F)F [Compound 79] | 50 to 79 | 0 to 49 | 80 to 100 | 0 to 49 | 80 to 100 | 80 to 100 |  |  |  |  | 
O=C(Nc1c(Cl)cccc1Cl)Oc1cccc(C2=NN(CC(F)(F)F)C(=O)CN2)c1 [Compound 25] |  |  |  |  |  | 0 to 49 | 0 to 49 | 0 to 49 | 0 to 49 | 0 to 49 | 0 to 49
CCCCn1nc(-c2cc(-c3ccsc3)cc(-c3ccsc3)c2)ncc1=O [Compound 81] | 0 to 49 | 0 to 49 | 80 to 100 | 0 to 49 | 0 to 49 | 0 to 49 |  |  |  |  | 
Cc1cc(C)cc(C2=NN(CC(F)(F)F)C(=O)C(OC3CCCCC3)N2)c1 (stereo not drawn) [Compound 41] | 50 to 79 | 0 to 49 | 80 to 100 | 0 to 49 | 80 to 100 | 80 to 100 |  |  |  |  | 
O=C(c1ccccc1)c1cccc(C2=NN(CC(F)(F)F)C(=O)C(SC3CCCCC3)N2)c1 (stereo not drawn) [Compound 54] | 50 to 79 | 0 to 49 | 80 to 100 | 0 to 49 | 50 to 79 | 80 to 100 |  |  |  |  | 
O=C1CNC(c2cc(Cl)cc(Cl)c2)=NN1Cc1ccccn1 [Compound 6] | 50 to 79 | 0 to 49 | 80 to 100 | 0 to 49 | 80 to 100 | 80 to 100 |  |  |  |  | 
CNc1cc(F)nc(Oc2cccc(C3=NN(CC(F)(F)F)C(=O)CN3)c2)n1 [Compound 32] | 0 to 49 | 0 to 49 | 80 to 100 | 0 to 49 | 50 to 79 | 0 to 49 |  |  |  |  | 
O=C1CNC(c2cccc(OCc3ccccc3)c2)=NN1CCF [Compound 19] | 0 to 49 | 0 to 49 | 50 to 79 | 0 to 49 | 80 to 100 | 50 to 79 |  |  |  |  | 
